Laboratory results from ChEMBL document CHEMBL1156451 (J Biol Chem, 2007).
≈ marks a conversion by molar mass, not a printed value. Calls of active or inactive are those of the source. The rule behind the calls is not given here. Where a SMILES comes first, the peptide text is derived from it.

Assays:
Acinetobacter baumannii = experiment: Antibacterial activity against Acinetobacter baumannii ATCC 19606 after 24 hrs in Mueller-Hinton broth medium; format: functional
Escherichia coli [1] = experiment: Antibacterial activity against Escherichia coli K12 ATCC 23716 in 10% Luria-Bertani medium/90% Hepes buffer at pH 7.0; format: functional
[2] = Toxicity in human erythrocytes assessed as hemolysis at 100 ug/ml; format: cell-based, Erythrocyte; conditions: read-out: Activity
Staphylococcus aureus = experiment: Antibacterial activity against methicillin-resistant Staphylococcus aureus ATCC 43300 after 24 hrs in Mueller-Hinton broth medium; format: functional
Brucella abortus [3] = experiment: Antibacterial activity against Brucella abortus 9.49 (per-) after 48 hrs in Mueller-Hinton broth medium; format: functional
[4] = test system: Bordetella bronchiseptica; experiment: Antibacterial activity against Bordetella bronchiseptica CUN 11844-99 after 24 hrs in Mueller-Hinton broth medium; format: functional
HeLa = experiment: Cytotoxicity against human HeLa cells at 100 ug/ml after 24 hrs by MTT assay relative to control; format: functional
Escherichia coli [5] = experiment: Antibacterial activity against Escherichia coli K12 ATCC 23716 after 24 hrs in Mueller-Hinton broth medium; format: functional
Pseudomonas aeruginosa = experiment: Antibacterial activity against Pseudomonas aeruginosa CUN 4158-02 after 24 hrs in Mueller-Hinton broth medium; format: functional
Brucella abortus [6] = experiment: Antibacterial activity against Brucella abortus 9.19 (per-) after 24 hrs in Mueller-Hinton broth medium; format: functional
Escherichia coli [7] = experiment: Antibacterial activity against Escherichia coli ATCC 25922 after 24 hrs in Mueller-Hinton broth medium; format: functional

## CC[C@H](C)[C@H](NC(=O)[C@H](CCCNC(=N)N)NC(=O)[C@H](CCCNC(=N)N)NC(=O)[C@H](CC(C)C)NC(=O)[C@H](Cc1ccccc1)NC(=O)[C@@H](NC(=O)[C@H](CCCNC(=N)N)NC(=O)[C@H](CCSC)NC(=O)[C@@H](NC(=O)[C@H](CCCCN)NC(=O)[C@H](CCCCN)NC(=O)[C@H](CO)NC(=O)[C@@H](NC(=O)[C@@H](N)CCCCN)[C@@H](C)CC)[C@@H](C)CC)[C@@H](C)O)C(=O)N[C@@H](CO)C(=O)N[C@@H](CCCCN)C(=O)N[C@@H](CC(=O)O)C(=O)N[C@H](C(=O)N[C@@H](CC(C)C)C(=O)N[C@H](C(=O)NCC(=O)N[C@@H](CCCCN)C(=O)N[C@@H](CCCCN)C(N)=O)[C@@H](C)O)[C@@H](C)CC (H-KISKKIMRTFLRRISKDILTGKK-NH2)
Acinetobacter baumannii; ATCC 19606, 24 h
  MBC: 4 µg/mL (≈ 1.45 µM)
  MIC: 4 µg/mL (≈ 1.45 µM)
Escherichia coli [1]
  MBC: 12.5 µg/mL (≈ 4.53 µM)
  MIC: 12.5 µg/mL (≈ 4.53 µM)
[2]
  hemolysis at 100 ug/ml: < 5%
Staphylococcus aureus; ATCC 43300, 24 h
  MBC: > 256 µg/mL
  MIC: > 256 µg/mL
Brucella abortus [3]
  MIC: 2 µg/mL (≈ 0.725 µM)
[4]
  MBC: 1 µg/mL (≈ 0.362 µM)
  MIC: 1 µg/mL (≈ 0.362 µM)
HeLa
  Activity: inactive
Escherichia coli [5]; K12, 24 h
  MBC: 4 µg/mL (≈ 1.45 µM)
  MIC: 4 µg/mL (≈ 1.45 µM)
Pseudomonas aeruginosa
  MBC: 4 µg/mL (≈ 1.45 µM)
  MIC: 4 µg/mL (≈ 1.45 µM)
Brucella abortus [6]
  MBC: 64 µg/mL (≈ 23.2 µM)
Escherichia coli [7]; ATCC 25922, 24 h
  MBC: 4 µg/mL (≈ 1.45 µM)
  MIC: 4 µg/mL (≈ 1.45 µM)

## CC[C@H](C)[C@H](NC(=O)[C@H](CCCCN)NC(=O)[C@H](CCCCN)NC(=O)[C@H](CO)NC(=O)[C@@H](NC(=O)CNC(=O)[C@H](CCCNC(=N)N)NC(=O)[C@H](CC(C)C)NC(=O)[C@@H](NC(=O)[C@@H](N)CCCCN)[C@@H](C)CC)C(C)C)C(=O)N[C@@H](CCSC)C(=O)N[C@@H](CCCNC(=N)N)C(=O)N[C@@H](CCCNC(=N)N)C(=O)N[C@H](C(=O)N[C@@H](CO)C(=O)N[C@@H](CCCCN)C(=O)N[C@@H](CC(=O)O)C(=O)N[C@H](C(=O)N[C@@H](CC(C)C)C(=O)N[C@H](C(=O)NCC(=O)N[C@@H](CCCCN)C(=O)N[C@@H](CCCCN)C(N)=O)[C@@H](C)O)[C@@H](C)CC)[C@@H](C)CC (H-KILRGVSKKIMRRISKDILTGKK-NH2)
Acinetobacter baumannii; ATCC 19606, 24 h
  MBC: 8 µg/mL (≈ 3 µM)
  MIC: 8 µg/mL (≈ 3 µM)
Escherichia coli [1]
  MBC: 25 µg/mL (≈ 9.37 µM)
  MIC: 12.5 µg/mL (≈ 4.68 µM)
[2]
  hemolysis at 100 ug/ml: < 5%
Staphylococcus aureus; ATCC 43300, 24 h
  MBC: > 256 µg/mL
  MIC: > 256 µg/mL
Brucella abortus [3]
  MIC: 4 µg/mL (≈ 1.5 µM)
[4]
  MBC: 1 µg/mL (≈ 0.375 µM)
  MIC: 1 µg/mL (≈ 0.375 µM)
HeLa
  Activity: inactive
Escherichia coli [5]; K12, 24 h
  MBC: 16 µg/mL (≈ 6 µM)
  MIC: 16 µg/mL (≈ 6 µM)
Pseudomonas aeruginosa
  MBC: 16 µg/mL (≈ 6 µM)
  MIC: 16 µg/mL (≈ 6 µM)
Brucella abortus [6]
  MBC: > 128 µg/mL
Escherichia coli [7]; ATCC 25922, 24 h
  MBC: 64 µg/mL (≈ 24 µM)
  MIC: 16 µg/mL (≈ 6 µM)

## POLYMYXIN B
Acinetobacter baumannii
  MBC: 0.5 µg/mL
  MIC: 0.5 µg/mL
Escherichia coli [1]
  MBC: 3.2 µg/mL
  MIC: 2.4 µg/mL
Staphylococcus aureus
  MIC: 32 µg/mL
Brucella abortus [3]
  MIC: 0.25 µg/mL
[4]
  MBC: 0.5 µg/mL
  MIC: 0.5 µg/mL
HeLa
  Activity: inactive
Escherichia coli [5]
  MBC: 0.125 µg/mL
  MIC: 0.125 µg/mL
Pseudomonas aeruginosa
  MBC: 0.25 µg/mL
  MIC: 0.25 µg/mL
Brucella abortus [6]
  MBC: 0.5 µg/mL
Escherichia coli [7]
  MBC: 0.5 µg/mL
  MIC: 0.5 µg/mL

## CC[C@H](C)[C@H](NC(=O)[C@H](CCCNC(=N)N)NC(=O)[C@H](CCCCN)NC(=O)[C@H](CO)NC(=O)[C@@H](NC(=O)CNC(=O)[C@H](CCCNC(=N)N)NC(=O)[C@H](CC(C)C)NC(=O)[C@@H](NC(=O)[C@@H](N)CCCCN)[C@@H](C)CC)C(C)C)C(=O)N[C@@H](CC(C)C)C(=O)N[C@H](C(=O)NCC(=O)N[C@@H](CCCCN)C(=O)N[C@@H](CCCCN)C(N)=O)[C@@H](C)O (H-KILRGVSKRILTGKK-NH2)
Acinetobacter baumannii; ATCC 19606, 24 h
  MBC: > 128 µg/mL
  MIC: > 128 µg/mL
Escherichia coli [1]
  MBC: 100 µg/mL (≈ 59 µM)
  MIC: 50 µg/mL (≈ 29.5 µM)
[2]
  hemolysis at 100 ug/ml: < 5%
Staphylococcus aureus; ATCC 43300, 24 h
  MBC: > 256 µg/mL
  MIC: > 256 µg/mL
[4]
  MBC: > 64 µg/mL
  MIC: > 64 µg/mL
HeLa
  Activity: inactive
Escherichia coli [5]; K12, 24 h
  MBC: > 128 µg/mL
  MIC: > 128 µg/mL
Pseudomonas aeruginosa
  MBC: 128 µg/mL (≈ 75.5 µM)
  MIC: 128 µg/mL (≈ 75.5 µM)
Escherichia coli [7]; ATCC 25922, 24 h
  MBC: > 256 µg/mL
  MIC: > 256 µg/mL
